Earlier results in US20120245552A1, “Combination Therapy” (POP TEST CORTISOL LLC, priority 2011, published 2012).

Experiments:
GCR = target: T1, GCR (Homo sapiens, UniProt P04150); details: cited from earlier work
T1 sequence (P04150 1-777): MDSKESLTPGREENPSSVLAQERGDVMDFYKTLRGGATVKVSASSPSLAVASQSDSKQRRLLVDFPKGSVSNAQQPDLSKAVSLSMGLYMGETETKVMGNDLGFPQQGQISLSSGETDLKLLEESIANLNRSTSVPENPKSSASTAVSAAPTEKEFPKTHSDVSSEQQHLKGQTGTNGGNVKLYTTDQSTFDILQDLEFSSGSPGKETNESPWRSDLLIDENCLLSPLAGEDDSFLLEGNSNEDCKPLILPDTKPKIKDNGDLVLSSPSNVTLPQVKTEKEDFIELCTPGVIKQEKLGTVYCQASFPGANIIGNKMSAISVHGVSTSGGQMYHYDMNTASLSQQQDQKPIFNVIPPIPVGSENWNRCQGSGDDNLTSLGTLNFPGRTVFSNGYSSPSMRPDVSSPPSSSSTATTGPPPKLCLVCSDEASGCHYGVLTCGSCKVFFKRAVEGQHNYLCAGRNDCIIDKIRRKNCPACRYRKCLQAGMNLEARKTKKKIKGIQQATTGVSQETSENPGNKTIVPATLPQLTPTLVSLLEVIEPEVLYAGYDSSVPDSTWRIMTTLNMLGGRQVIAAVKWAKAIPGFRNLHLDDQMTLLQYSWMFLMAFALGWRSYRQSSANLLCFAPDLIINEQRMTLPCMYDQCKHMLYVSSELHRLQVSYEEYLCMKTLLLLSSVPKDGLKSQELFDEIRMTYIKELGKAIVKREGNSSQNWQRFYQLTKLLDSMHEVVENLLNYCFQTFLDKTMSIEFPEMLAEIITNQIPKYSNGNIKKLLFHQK

[1] = tested on: other related steroidal hormone receptors (such as those for estrogen and progesterone); details: cited from earlier work
[2] = phase I and phase II clinical trials; cited from earlier work

SMILES: CC#C[C@]1(O)CC[C@H]2[C@@H]3CCC4=CC(=O)CCC4=C3[C@@H](c3ccc4c(c3)OCO4)C[C@@]21C [ORG 34517, (11β,17β)-11-(1,3-benzodioxol-5-yl)-17-hydroxy-17-(1-propynyl)estra-4,9-dien-3-one]
- GCR binding affinity (GCR): high
- cross-binding to other related steroidal hormone receptors [1]: without significant cross-binding
- significant toxicities and side effects [2]: none were identified
